# Reference: article PMC9516332 (Frontiers in Oncology, 2022)
# Like-named read-outs stand apart in the source and are kept apart here.
# Legend:
# [1] = target: panel of 255 wild-type kinases (Homo sapiens, UniProt O00311); test: Kinase panel profiling at 1 µmol/L (MSA or IMAP), percentage inhibition; assay type: biochemical; conditions: CDC7/ASK kinase assay; 1 µmol/L single concentration; read-out: %-inhibition CDC7/ASK
# [2] = target: panel of 255 wild-type kinases (Homo sapiens, UniProt P42684); test: as above; assay type: biochemical; conditions: ARG kinase assay; 1 µmol/L single concentration; read-out: %-inhibition ARG
# [3] = test system: AP-1060 (ETV6-NTRK3); test: Cell viability assay; conditions: read-out: IC50 in cell proliferation assay
# [4] = test system: 134 cancer cell lines; test: Cell viability assay (ATPlite, 72 hours), IC50 on cancer cell line panel
smiles,measurement,setting,value
CCN1C(=O)N(c2c(F)c(OC)cc(OC)c2F)Cc2cnc3[nH]c(CN4CCOCC4)cc3c21 [pemigatinib],inhibition at 1 µM,[1],-3.54%
same,inhibition at 1 µM,[2],7%
same,IC50,[3],3.42 µM
same,IC50,"[4]; HEC-6, read-out: IC50 in cell proliferation assay",2.49 µM
same,IC50,"[4]; Homo sapiens, 769-P, read-out: IC50 in cell proliferation assay",2.53 µM
same,IC50,"[4]; Homo sapiens, 786-0, read-out: IC50 in cell proliferation assay",2.71 µM
same,IC50,"[4]; Homo sapiens, A 172, read-out: IC50 in cell proliferation assay",0.029 µM
same,IC50,"[4]; Homo sapiens, A204, read-out: IC50 in cell proliferation assay",0.029 µM
same,IC50,"[4]; Homo sapiens, A498, read-out: IC50 in cell proliferation assay",1.13 µM
same,IC50,"[4]; Homo sapiens, A549, read-out: IC50 in cell proliferation assay",4.02 µM
same,IC50,"[4]; Homo sapiens, A704, read-out: IC50 in cell proliferation assay",1.28 µM
same,IC50,"[4]; Homo sapiens, A-375, read-out: IC50 in cell proliferation assay",3.03 µM
same,IC50,"[4]; Homo sapiens, A-427, read-out: IC50 in cell proliferation assay",0.00143 µM
same,IC50,"[4]; Homo sapiens, ACHN, read-out: IC50 in cell proliferation assay",0.989 µM
same,IC50,"[4]; Homo sapiens, AN3-CA, read-out: IC50 in cell proliferation assay",0.022 µM
same,IC50,"[4]; Homo sapiens, ASPC1, read-out: IC50 in cell proliferation assay",3.17 µM
same,IC50,"[4]; Homo sapiens, AU565, read-out: IC50 in cell proliferation assay",3.26 µM
same,IC50,"[4]; Homo sapiens, BT-20, read-out: IC50 in cell proliferation assay",2.84 µM
same,IC50,"[4]; Homo sapiens, BT-474, read-out: IC50 in cell proliferation assay",> 31.6 µM
same,IC50,"[4]; Homo sapiens, BT-549, read-out: IC50 in cell proliferation assay",0.017 µM
same,IC50,"[4]; Homo sapiens, BXPC-3, read-out: IC50 in cell proliferation assay",1.2 µM
same,IC50,"[4]; Homo sapiens, C-33-A, read-out: IC50 in cell proliferation assay",2.71 µM
same,IC50,"[4]; Homo sapiens, CAL-27, read-out: IC50 in cell proliferation assay",2.65 µM
same,IC50,"[4]; Homo sapiens, CCF-STTG1, read-out: IC50 in cell proliferation assay",> 31.6 µM
same,IC50,"[4]; Homo sapiens, CCRF-CEM, read-out: IC50 in cell proliferation assay",3.6 µM
same,IC50,"[4]; Homo sapiens, COLO 205, read-out: IC50 in cell proliferation assay",2.98 µM
same,IC50,"[4]; Homo sapiens, COLO-829, read-out: IC50 in cell proliferation assay",3.23 µM
same,IC50,"[4]; Homo sapiens, DLD-1, read-out: IC50 in cell proliferation assay",2.27 µM
same,IC50,"[4]; Homo sapiens, DU-145, read-out: IC50 in cell proliferation assay",1.6 µM
same,IC50,"[4]; Homo sapiens, DU-4475, read-out: IC50 in cell proliferation assay",5.83 µM
same,IC50,"[4]; Homo sapiens, Daoy, read-out: IC50 in cell proliferation assay",1.41 µM
same,IC50,"[4]; Homo sapiens, DoTc2-4510, read-out: IC50 in cell proliferation assay",3.19 µM
same,IC50,"[4]; Homo sapiens, EOL1, read-out: IC50 in cell proliferation assay",1.11 µM
same,IC50,"[4]; Homo sapiens, FaDu, read-out: IC50 in cell proliferation assay",2.6 µM
same,IC50,"[4]; Homo sapiens, G-361, read-out: IC50 in cell proliferation assay",2.57 µM
same,IC50,"[4]; Homo sapiens, HCC827, read-out: IC50 in cell proliferation assay",3.2 µM
same,IC50,"[4]; Homo sapiens, HCC4006, read-out: IC50 in cell proliferation assay",2.62 µM
same,IC50,"[4]; Homo sapiens, HCT-15, read-out: IC50 in cell proliferation assay",2.82 µM
same,IC50,"[4]; Homo sapiens, HCT-116, read-out: IC50 in cell proliferation assay",2.4 µM
same,IC50,"[4]; Homo sapiens, HEC-1, read-out: IC50 in cell proliferation assay",2.37 µM
same,IC50,"[4]; Homo sapiens, HEC-1B, read-out: IC50 in cell proliferation assay",2.74 µM
same,IC50,"[4]; Homo sapiens, HL-60, read-out: IC50 in cell proliferation assay",2.45 µM
same,IC50,"[4]; Homo sapiens, HT, read-out: IC50 in cell proliferation assay",> 31.6 µM
same,IC50,"[4]; Homo sapiens, HT-1080, read-out: IC50 in cell proliferation assay",1.06 µM
same,IC50,"[4]; Homo sapiens, Hs746T, read-out: IC50 in cell proliferation assay",1.84 µM
same,IC50,"[4]; Homo sapiens, Hs-578T, read-out: IC50 in cell proliferation assay",3.78 µM
same,IC50,"[4]; Homo sapiens, HuTu80, read-out: IC50 in cell proliferation assay",0.00358 µM
same,IC50,"[4]; Homo sapiens, J82, read-out: IC50 in cell proliferation assay",1.13 µM
same,IC50,"[4]; Homo sapiens, Jurkat E6.1, read-out: IC50 in cell proliferation assay",2.89 µM
same,IC50,"[4]; Homo sapiens, K562, read-out: IC50 in cell proliferation assay",3.77 µM
same,IC50,"[4]; Homo sapiens, KATO III, read-out: IC50 in cell proliferation assay",0.00177 µM
same,IC50,"[4]; Homo sapiens, KG-1, read-out: IC50 in cell proliferation assay",0.00108 µM
same,IC50,"[4]; Homo sapiens, KLE, read-out: IC50 in cell proliferation assay",1.82 µM
same,IC50,"[4]; Homo sapiens, KMS-11, read-out: IC50 in cell proliferation assay",0.016 µM
same,IC50,"[4]; Homo sapiens, KU812, read-out: IC50 in cell proliferation assay",4.66 µM
same,IC50,"[4]; Homo sapiens, Kasumi 1, read-out: IC50 in cell proliferation assay",1.29 µM
same,IC50,"[4]; Homo sapiens, LC-2-ad, read-out: IC50 in cell proliferation assay",3.28 µM
same,IC50,"[4]; Homo sapiens, LNCaP-Clone-FGC, read-out: IC50 in cell proliferation assay",3.09 µM
same,IC50,"[4]; Homo sapiens, LS174T, read-out: IC50 in cell proliferation assay",3.69 µM
same,IC50,"[4]; Homo sapiens, LS-411N, read-out: IC50 in cell proliferation assay",5.91 µM
same,IC50,"[4]; Homo sapiens, LoVo, read-out: IC50 in cell proliferation assay",2.7 µM
same,IC50,"[4]; Homo sapiens, MCF7, read-out: IC50 in cell proliferation assay",> 31.6 µM
same,IC50,"[4]; Homo sapiens, MDA-MB-231, read-out: IC50 in cell proliferation assay",4.51 µM
same,IC50,"[4]; Homo sapiens, MDA-MB-453, read-out: IC50 in cell proliferation assay",> 31.6 µM
same,IC50,"[4]; Homo sapiens, MDA-MB-468, read-out: IC50 in cell proliferation assay",0.729 µM
same,IC50,"[4]; Homo sapiens, MG-63, read-out: IC50 in cell proliferation assay",0.011 µM
same,IC50,"[4]; Homo sapiens, MIA PaCa-2, read-out: IC50 in cell proliferation assay",5.73 µM
same,IC50,"[4]; Homo sapiens, MKN-45, read-out: IC50 in cell proliferation assay",2.32 µM
same,IC50,"[4]; Homo sapiens, MOLM-13, read-out: IC50 in cell proliferation assay",3.54 µM
same,IC50,"[4]; Homo sapiens, MOLT-4, read-out: IC50 in cell proliferation assay",3.59 µM
same,IC50,"[4]; Homo sapiens, MV4-11, read-out: IC50 in cell proliferation assay",2.49 µM
same,IC50,"[4]; Homo sapiens, MeWo, read-out: IC50 in cell proliferation assay",2.81 µM
same,IC50,"[4]; Homo sapiens, NCCIT, read-out: IC50 in cell proliferation assay",0.022 µM
same,IC50,"[4]; Homo sapiens, NCI-H82, read-out: IC50 in cell proliferation assay",1.4 µM
same,IC50,"[4]; Homo sapiens, NCI-H460, read-out: IC50 in cell proliferation assay",2.75 µM
same,IC50,"[4]; Homo sapiens, NCI-H661, read-out: IC50 in cell proliferation assay",2.44 µM
same,IC50,"[4]; Homo sapiens, NCI-H716, read-out: IC50 in cell proliferation assay",0.00234 µM
same,IC50,"[4]; Homo sapiens, NCI-H1650, read-out: IC50 in cell proliferation assay",3.3 µM
same,IC50,"[4]; Homo sapiens, NCI-H1975, read-out: IC50 in cell proliferation assay",2.97 µM
same,IC50,"[4]; Homo sapiens, NCI-H2228, read-out: IC50 in cell proliferation assay",2.77 µM
same,IC50,"[4]; Homo sapiens, OVCAR-3, read-out: IC50 in cell proliferation assay",3.13 µM
same,IC50,"[4]; Homo sapiens, PFSK-1, read-out: IC50 in cell proliferation assay",3.86 µM
same,IC50,"[4]; Homo sapiens, RL95-2, read-out: IC50 in cell proliferation assay",2.38 µM
same,IC50,"[4]; Homo sapiens, RPMI-7951, read-out: IC50 in cell proliferation assay",2.98 µM
same,IC50,"[4]; Homo sapiens, RS4-11, read-out: IC50 in cell proliferation assay",1.33 µM
same,IC50,"[4]; Homo sapiens, Rec1, read-out: IC50 in cell proliferation assay",3.53 µM
same,IC50,"[4]; Homo sapiens, SHP77, read-out: IC50 in cell proliferation assay",> 31.6 µM
same,IC50,"[4]; Homo sapiens, SK-BR-3, read-out: IC50 in cell proliferation assay",0.835 µM
same,IC50,"[4]; Homo sapiens, SK-N-AS, read-out: IC50 in cell proliferation assay",2.83 µM
same,IC50,"[4]; Homo sapiens, SK-N-FI, read-out: IC50 in cell proliferation assay",3.04 µM
same,IC50,"[4]; Homo sapiens, SK-N-MC, read-out: IC50 in cell proliferation assay",2.6 µM
same,IC50,"[4]; Homo sapiens, SK-N-SH, read-out: IC50 in cell proliferation assay",2.23 µM
same,IC50,"[4]; Homo sapiens, SNU-5, read-out: IC50 in cell proliferation assay",5.25 µM
same,IC50,"[4]; Homo sapiens, SNU-16, read-out: IC50 in cell proliferation assay",0.002 µM
same,IC50,"[4]; Homo sapiens, SNU-C2B, read-out: IC50 in cell proliferation assay",> 31.6 µM
same,IC50,"[4]; Homo sapiens, SU-DHL-1, read-out: IC50 in cell proliferation assay",2.8 µM
same,IC50,"[4]; Homo sapiens, SU-DHL-6, read-out: IC50 in cell proliferation assay",5.12 µM
same,IC50,"[4]; Homo sapiens, SUP-T1, read-out: IC50 in cell proliferation assay",4.28 µM
same,IC50,"[4]; Homo sapiens, SW48, read-out: IC50 in cell proliferation assay",8.07 µM
same,IC50,"[4]; Homo sapiens, SW480, read-out: IC50 in cell proliferation assay",2.96 µM
same,IC50,"[4]; Homo sapiens, SW626, read-out: IC50 in cell proliferation assay",3.56 µM
same,IC50,"[4]; Homo sapiens, SW780, read-out: IC50 in cell proliferation assay",0.008 µM
same,IC50,"[4]; Homo sapiens, SW837, read-out: IC50 in cell proliferation assay",6.23 µM
same,IC50,"[4]; Homo sapiens, SW872, read-out: IC50 in cell proliferation assay",2.5 µM
same,IC50,"[4]; Homo sapiens, SW900, read-out: IC50 in cell proliferation assay",1.92 µM
same,IC50,"[4]; Homo sapiens, SW948, read-out: IC50 in cell proliferation assay",1.93 µM
same,IC50,"[4]; Homo sapiens, SW982, read-out: IC50 in cell proliferation assay",1.28 µM
same,IC50,"[4]; Homo sapiens, SW-620, read-out: IC50 in cell proliferation assay",3.49 µM
same,IC50,"[4]; Homo sapiens, T98G, read-out: IC50 in cell proliferation assay",3.54 µM
same,IC50,"[4]; Homo sapiens, TCC-SUP, read-out: IC50 in cell proliferation assay",0.606 µM
same,IC50,"[4]; Homo sapiens, THP-1, read-out: IC50 in cell proliferation assay",4.23 µM
same,IC50,"[4]; Homo sapiens, U2OS, read-out: IC50 in cell proliferation assay",2.95 µM
same,IC50,"[4]; Homo sapiens, U-87 MG, read-out: IC50 in cell proliferation assay",3.12 µM
same,IC50,"[4]; Homo sapiens, U-118-MG, read-out: IC50 in cell proliferation assay",4.09 µM
same,IC50,"[4]; Homo sapiens, UMUC3, read-out: IC50 in cell proliferation assay",1.6 µM
same,IC50,"[4]; Hs766T, read-out: IC50 in cell proliferation assay",5.66 µM
same,IC50,"[4]; L-82, read-out: IC50 in cell proliferation assay",4.1 µM
same,IC50,"[4]; Rh30, read-out: IC50 in cell proliferation assay",0.137 µM
